According to patent publication US11445724B2, “Insecticidal compounds” (SYNGENTA PARTICIPATIONS AG, priority 2013, dated 2022):

Columns and labels:
Assay type in all cases: in vivo
[1] = test system: Thrips tabaci (Onion thrips); assay: Thrips tabaci (Onion thrips) mortality, sprayed sunflower leaf discs; settings: foliar, 168 h, 200 ppm spray on sunflower leaf discs, mixed ages, mortality after 7 days
[2] = test system: Plutella xylostella (Diamond back moth); assay: Plutella xylostella (Diamond back moth) larval mortality, artificial diet in 24-well MTP; settings: 144 h, application rate 200 ppm (concentration in well 18 ppm), L2 larvae, larval mortality after 6 days
[3] = test system: Spodoptera littoralis (Egyptian cotton leafworm); assay: Spodoptera littoralis (Egyptian cotton leafworm) mortality, sprayed cotton leaf discs; settings: foliar, 72 h, 200 ppm spray on cotton leaf discs, L1 larvae, mortality 3 DAT
[4] = test system: Diabrotica balteata (Corn root worm); assay: Diabrotica balteata (Corn root worm) larval mortality, artificial diet in 24-well MTP; settings: 120 h, application rate 200 ppm (concentration in well 18 ppm), L2 larvae, larval mortality after 5 days
[5] = test system: Myzus persicae (Green peach aphid); assay: Myzus persicae (Green peach aphid) mortality, test compounds mixed with Sucrose solution under Parafilm; settings: 120 h, 12.5 ppm in Sucrose solution, infested pea seedlings on Parafilm, mortality 5 days after infestation
[6] = test system: Myzus persicae (Green peach aphid); assay: Myzus persicae (Green peach aphid) mortality, sprayed sunflower leaf discs; settings: foliar, 144 h, 200 ppm spray on sunflower leaf discs, mixed ages, mortality 6 DAT

COc1c(NC(=O)c2ccccc2F)cccc1C(=O)Nc1c(Br)cc(C(F)(C(F)(F)F)C(F)(F)F)cc1OC(F)F [Compound 33]
≥ 80%: pest or weed control at 200 ppm [1] | pest or weed control at 200 ppm [2] | pest or weed control at 200 ppm [3] | pest or weed control at 200 ppm [4] | pest or weed control at 12.5 ppm [5]

COc1c(NC(=O)c2cc(Cl)ccc2F)cccc1C(=O)Nc1c(Br)cc(C(F)(C(F)(F)F)C(F)(F)F)cc1OC(F)F [Compound 44]
≥ 80%: pest or weed control at 200 ppm [2] | pest or weed control at 200 ppm [3] | pest or weed control at 12.5 ppm [5]

CCN(C(=O)c1cc(Cl)ccc1F)c1cccc(C(=O)Nc2c(Br)cc(C(F)(C(F)(F)F)C(F)(F)F)cc2OC(F)F)c1F [Compound 104]
≥ 80%: pest or weed control at 200 ppm [1] | pest or weed control at 200 ppm [2] | pest or weed control at 200 ppm [3] | pest or weed control at 200 ppm [4] | pest or weed control at 12.5 ppm [5]

CCN(C(=O)c1cc(C(F)(F)F)ccc1F)c1cccc(C(=O)Nc2c(Br)cc(C(F)(C(F)(F)F)C(F)(F)F)cc2OC(F)F)c1F [Compound 110]
≥ 80%: pest or weed control at 200 ppm [1] | pest or weed control at 200 ppm [2] | pest or weed control at 200 ppm [3] | pest or weed control at 200 ppm [4] | pest or weed control at 12.5 ppm [5]

CCN(C(=O)c1ccc([N+](=O)[O-])cc1)c1cccc(C(=O)Nc2c(Cl)cc(C(F)(C(F)(F)F)C(F)(F)F)cc2OC(F)F)c1F [Compound 113]
≥ 80%: pest or weed control at 200 ppm [2] | pest or weed control at 200 ppm [3] | pest or weed control at 200 ppm [4] | pest or weed control at 12.5 ppm [5]

CCN(C(=O)c1ccc(C)cc1)c1cccc(C(=O)Nc2c(Cl)cc(C(F)(C(F)(F)F)C(F)(F)F)cc2OC(F)F)c1F [Compound 114]
≥ 80%: pest or weed control at 200 ppm [1] | pest or weed control at 200 ppm [2] | pest or weed control at 200 ppm [3] | pest or weed control at 200 ppm [4] | pest or weed control at 12.5 ppm [5]

CCN(C(=O)c1ccc([N+](=O)[O-])cc1Cl)c1cccc(C(=O)Nc2c(Cl)cc(C(F)(C(F)(F)F)C(F)(F)F)cc2OC(F)F)c1F [Compound 116]
≥ 80%: pest or weed control at 200 ppm [1] | pest or weed control at 200 ppm [3] | pest or weed control at 200 ppm [4] | pest or weed control at 12.5 ppm [5]

CCN(C(=O)c1cccc(F)c1F)c1cccc(C(=O)Nc2c(Br)cc(C(F)(C(F)(F)F)C(F)(F)F)cc2OC(F)F)c1OC [Compound 142]
≥ 80%: pest or weed control at 200 ppm [1] | pest or weed control at 200 ppm [2] | pest or weed control at 200 ppm [3] | pest or weed control at 200 ppm [4] | pest or weed control at 200 ppm [6]

CCN(C(=O)c1ccc(F)cc1F)c1cccc(C(=O)Nc2c(Br)cc(C(F)(C(F)(F)F)C(F)(F)F)cc2OC(F)F)c1OC [Compound 143]
≥ 80%: pest or weed control at 200 ppm [1] | pest or weed control at 200 ppm [2] | pest or weed control at 200 ppm [3] | pest or weed control at 200 ppm [4] | pest or weed control at 200 ppm [6]

CCN(C(=O)c1ccccc1Cl)c1cccc(C(=O)Nc2c(Cl)cc(C(F)(C(F)(F)F)C(F)(F)F)cc2OC(F)F)c1OC [Compound 147]
≥ 80%: pest or weed control at 200 ppm [1] | pest or weed control at 200 ppm [2] | pest or weed control at 200 ppm [3] | pest or weed control at 200 ppm [4] | pest or weed control at 200 ppm [6]

CCN(C(=O)c1ccc(C)cc1)c1cccc(C(=O)Nc2c(Cl)cc(C(F)(C(F)(F)F)C(F)(F)F)cc2OC(F)F)c1OC [Compound 149]
≥ 80%: pest or weed control at 200 ppm [1] | pest or weed control at 200 ppm [2] | pest or weed control at 200 ppm [3] | pest or weed control at 200 ppm [4] | pest or weed control at 200 ppm [6]

COc1c(C(=O)Nc2c(Br)cc(C(F)(C(F)(F)F)C(F)(F)F)cc2OC(F)F)cccc1N(C)C(=O)c1cc[n+]([O-])cc1 [Compound 183, N-[3-[[2-bromo-6-(difluoromethoxy)-4-[1,2,2,2-tetrafluoro-1-(trifluoromethyl)ethyl]phenyl]carbamoyl]-2-methoxy-phenyl]-N-methyl-1-oxido-pyridin-1-ium-4-carboxamide]
≥ 80%: pest or weed control at 200 ppm [4] | pest or weed control at 12.5 ppm [5]
